These results are taken from patent publication US8124343B2, “IRE-1α substrates” (MannKind Corporation, priority 2005, dated 2012).

{BHQ1} = Black Hole Quencher-1 (BHQ-1) label; {FAM} = fluorescein (FAM) label

Common to all, as to assay type: biochemical
Data set [1] concerns the target T1, IRE-1α (Homo sapiens, UniProt O75460).
T1 construct: GST (N, cleaved yes); made in house; host or cells: baculovirus-infected insect cells
Description: IRE-1α RNase activity assay, reaction products separated on denaturing gel.

In data set [2] the target is T1, IRE-1α. In words: High-throughput screening assay of IRE-1α RNase activity. The conditions noted are these: for fluorescence signal, average: 384-well plates. The procedure:
Five μl of a reaction mixture comprising 1× reaction buffer (5× reaction buffer is 100 mM Hepes pH 7.5, 250 mM KOAc, 2.5 mM MgCl2), 3 mM DTT, and 0.4% polyethylene glycol water were added to each well of 384 well plates. Twenty-five nanoliters of a 1 mM test compound solution were added to test wells. Three μl of a […] IRE-1α preparation were added to each test well and to positive control wells (final concentration 5.82 ng/well). Negative control wells contained only reaction mixture and test compound.
After spinning the plates at 1200 rpm for 30 seconds, 3 μl of a 63 nM wild-type IRE-1α substrate or 3 μl of a 63 nM mutant IRE-1α substrate diluted to 48 nM were added to each well of a control plate. The plates were again spun at 1200 rpm for 30 seconds. Final concentrations for the assay were: 63 nM wild-type IRE-1α substrate (or 48 nM mutant IRE-α substrate), 5.82 ng IRE-1α protein, and 2.5 μM test compound.
The plates were covered with lids and incubated for one hour at 30° C. The plates were then transferred to an ACQUEST™ microplate reader. Data was analyzed using data analysis software. The percent activity of IRE-1α was calculated using the following equation: […]
A Beckman Biomek FX robot was used to load all components of the reaction into 384-well plates in the following order: buffer with test compound, IRE-1α, and substrate into 384-well plates. Controls with substrate alone and substrate with IRE-1α were used to calibrate signal to noise ratio and variability between wells (first two left hand rows respectively, in FIG. 6). The two far right lanes in FIG. 6 contain the mutant 15 base dual-labeled substrate with and without IRE-1α as a quality control check for RNase contamination.

Data set [3] addresses T1, IRE-1α. In words: Competition assay with 15 base wild-type dual-labeled substrate as readout. Here is the method:
Increasing amounts of either unlabeled wild-type (SEQ ID NO:1) or mutant 33 base substrate (SEQ ID NO:2) were incubated in the standard reaction as described in Example 2 for 1 hour at 30° C.
X-axis, fluorescence intensity; columns of Y axis, from left to right: 1, wild-type 15 base FAM BHQ-1™ substrate, no IRE-1α, and no competitor (background signal); 2, wild-type 15 base FAM BHQ-1™ substrate, no IRE-1α (background signal) plus 50 fold molar excess of unlabeled wild-type 33 base substrate (control for possible quenching of fluorophore with excess and possible hybridizing to the longer 33 base substrate); 3, wild-type 15 base FAM BHQ-1™ substrate with IRE-1α and an equivalent amount of wild-type 33 base substrate; 4, same as 3 with 2× wild-type 33 base substrate; 5, same as 3 with 5× wild-type 33 base substrate; 6, same as 3 with 10× wild-type 33 base substrate; 7, same as 3 with 20× wild-type 33 base substrate; 8, same as 3 with 50× wild-type 33 base substrate; 9, wild-type 15 base FAM BHQ-1™ substrate no IRE-1α (background signal) plus 50 fold molar excess of unlabeled mutant 33 base substrate (control for possible quenching of fluorophore with excess and possible hybridizing to the longer 33 base substrate (essentially the same as 2); 10, wild-type 15 base FAM BHQ-1™ substrate with IRE-1α and an equivalent amount of mutant 33 base substrate; 11, same as 3 with 2×33 base mutant substrate; 12, same as 3 with 5×33 base mutant substrate; 13, same as 3 with 10×33 base mutant substrate; 14, same as 3 with 20×33 base mutant substrate; 15, same as 3 with 50×33 base mutant substrate; 16, wild-type 15 base FAM BHQ-1™ substrate with IRE-1α (positive control).

Data set [4] addresses T1, IRE-1α. Description: Kinetics of IRE-1α-mediated substrate cleavage. Particulars: 20 nM purified IRE-1α, 63 nM substrate, 60 minute incubation, 30° C. Here is the method: Kinetics of IRE-1α-mediated substrate cleavage were measured in an assay as described above using purified active IRE-1α and the wild-type 15 base FAM-BHQ-1™-labeled substrate. The plate was incubated at 30° C. and read every 5 minutes.
These conditions result in a signal of 60,000 units, which is approximately 75% of the full 80,000 unit signal.

Setting [5] is: with IRE-1α added, FIG. 3 lanes 13-14.
[6] abbreviates: with IRE-1α, no PEG, FIG. 3 lanes 3-4.
Setting [7] is: with IRE-1α, with PEG, FIG. 3 lanes 7-8.

T1 sequence (O75460 with tags, fused parts or gaps): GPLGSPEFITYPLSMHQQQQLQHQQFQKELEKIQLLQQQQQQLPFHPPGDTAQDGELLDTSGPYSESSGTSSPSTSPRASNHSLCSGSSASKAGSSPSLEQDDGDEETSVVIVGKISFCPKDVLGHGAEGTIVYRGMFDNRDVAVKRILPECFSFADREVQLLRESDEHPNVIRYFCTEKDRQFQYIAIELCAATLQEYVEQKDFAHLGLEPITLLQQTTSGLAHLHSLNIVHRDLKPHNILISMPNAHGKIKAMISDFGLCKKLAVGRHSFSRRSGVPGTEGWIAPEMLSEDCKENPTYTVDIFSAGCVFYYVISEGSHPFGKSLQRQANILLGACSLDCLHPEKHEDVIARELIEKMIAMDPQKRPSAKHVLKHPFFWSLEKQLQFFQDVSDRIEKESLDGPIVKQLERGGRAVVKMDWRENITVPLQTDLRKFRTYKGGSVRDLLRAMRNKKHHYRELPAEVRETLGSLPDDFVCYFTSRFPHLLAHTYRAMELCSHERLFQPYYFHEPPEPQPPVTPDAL

In the case of “5′-CAGUCCCCAGCACUG-3′ (chemistry not fully specified) [15 base mutant substrate, 15 base mutant substrate with 5′ FAM and 3′ BHQ-1 moieties]”, the “signal from cleaved FAM-BHQ1 labeled substrate (gel)” value in data set [1] (setting [5]) is “no signal”. The “fluorescence signal, average” value in data set [2] (substrate alone (no IRE-1α)) was determined as 10393; in data set [2] (substrate and IRE-1α), 10516.

“5′-GGGUCUGCUGAGUCCGCAGCACUCAGAAGGCCC-3′ (chemistry not given here) [33 base wild-type substrate, 33 base wild-type stem-loop RNA substrate for IRE-1α]”: the “cleavage of substrate by IRE-1α (gel)” value in data set [1] (IRE-1α diluted 1:3, with PEG, FIG. 3 lane 9) is “cuts”; in data set [1] (IRE-1α diluted 1:12, with PEG, FIG. 3 lane 10), “cuts”; in data set [1] (setting [6]) it was “cuts”; in data set [1] (setting [7]), “cuts”. The “digestion of 33 base stem-loop substrate by IRE-1α (lower molecular weight band)” value in data set [1] (recombinant purified human IRE-1α, FIG. 3C) is on record as “digested”. For the same substance, the “inhibitory activity (fluorescence intensity)” value in data set [3] (50-fold excess of unlabeled competitor, 1 hour at 30° C.) was “greater than 50%”. Moreover, in data set [3] (ten-fold molar excess of unlabeled competitor, 1 hour at 30° C.), the “competition with the 15 base IRE-1α substrate, inhibition of fluorescence intensity” value is on record as “begins to compete”.

For the substance “5′-GGGUCUGCUGAGUCCCCAG-CACUCAGAAGGCCC-3′ (GGGUCUGCUGAGUCCCCAGCACUCAGAAGGCCC; chemistry not given here) [33 base mutant substrate]”, the “cleavage of substrate by IRE-1α (gel)” value in data set [1] (setting [6]) and in data set [1] (setting [7]) was “does not cut” throughout. Also, in data set [3] (similar concentrations (ten-fold to 50-fold excess) of unlabeled competitor), the “inhibitory activity (fluorescence intensity)” value is given as “no inhibitory activity”.

With “5′-CAGUCCGCAGCACUG-3′ (5' {FAM}, 3' {BHQ1}, sugars by position and backbone not given here) [15 base wild-type substrate, 15 base wild-type substrate with 5′ FAM and 3′ BHQ-1 moieties]”, the “signal from cleaved FAM-BHQ1 labeled substrate (gel)” value is on record as “signal” in data set [1] (IRE-1α added diluted to 1:3, FIG. 3 lane 15) and “signal” in data set [1] (setting [5]). In data set [4] (10 μl reaction volume), the signal is recorded as 60,000 units. The “signal as share of the full 80,000 unit signal” value in data set [4] (10 μl) is “approximately 75%”. The “fluorescence signal, average” value was found to be 12305 in data set [2] (substrate alone (no IRE-1α)); 50076 in data set [2] (substrate and IRE-1α). Also, the “ratio of positive control over background” value in data set [2] (wild-type substrate and IRE-1α over substrate alone) is on record as 4.07.
